Counter-ions that a name gives are not always drawn.

The results in this text go back to patent publication US20260200928A1, “THERAPEUTIC COMPOUNDS” (Sanofi, priority 2022, published 2026).

In the test the target is T1, human IL-17A (Homo sapiens, UniProt Q16552).
T1 construct: purchased R&D Systems 7955-IL/CF
T1 sequence (Q16552 24-155): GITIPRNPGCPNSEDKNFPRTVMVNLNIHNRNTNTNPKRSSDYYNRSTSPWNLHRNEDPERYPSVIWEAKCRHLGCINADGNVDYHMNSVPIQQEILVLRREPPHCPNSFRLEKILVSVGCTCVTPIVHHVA
As to the kind of experiment: IL-17A AlphaLISA competition assay (block of IL-17A binding to its receptor IL-17RA). The settings on record: mean IC50 (n≥2), block of IL-17A binding to IL-17RA. The procedure, abridged:
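Human recombinant IL-17A (7.5 nM stock) pre-incubated 30 min at RT with compound, then IL-17RA/Fc (5 nM stock) added for 90 min; AlphaLISA read with anti-Fc acceptor beads, biotinylated anti-IL-17A antibody (5 nM) and streptavidin donor beads (3 h, dark). IC50 from 4-parameter logistic fit, normalised to DMSO and 4 μM reference inhibitor; n≥2.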
In general terms: In Alpha technology, singlet oxygen from a donor bead excites a nearby acceptor bead.
`CCc1nocc1C(=O)N[C@H](C(=O)Nc1cc(O[C@H]2C[C@@H](C(F)(F)F)NC2=O)ccn1)[C@H]1CC[C@H](C)CC1` [Example 321, 3-ethyl-N—((S)-1-((1r,4S)-4-methylcyclohexyl)-2-oxo-2-((4-(((3S,5S)-2-oxo-5-(trifluoromethyl)pyrrolidin-3-yl)oxy)pyridin-2-yl)amino)ethyl)isoxazole-4-carboxamide] yielded an IC50 of 689 nM.
The compound `CCc1conc1C(=O)N[C@H](C(=O)Nc1cc([C@@H](COC)N2C[C@@H](C(F)(F)F)NC2=O)ccn1)C1CC(F)(F)C1` [Example 261, N—((S)-1-(3,3-difluorocyclobutyl)-2-((4-((S)-2-methoxy-1-((S)-2-oxo-4-(trifluoromethyl)imidazolidin-1-yl)ethyl)pyridin-2-yl)amino)-2-oxoethyl)-4-ethylisoxazole-3-carboxamide] yielded an IC50 of 189 nM.
`CCc1nonc1C(=O)N[C@H](C(=O)Nc1cc(C[C@H]2C[C@@H](C(F)(F)F)NC2=O)ccn1)C1CCC(F)(F)CC1` [Example 220, N-((S)-1-(4,4-difluorocyclohexyl)-2-oxo-2-((4-(((3S,5S)-2-oxo-5-(trifluoromethyl)pyrrolidin-3-yl)methyl)pyridin-2-yl)amino)ethyl)-4-ethyl-1,2,5-oxadiazole-3-carboxamide] yielded an IC50 of 48 nM.
Then `COCC(NC(=O)CCC(F)(F)F)c1ccnc(NC(=O)[C@@H](NC(=O)c2ccnn2CC2CC2)C2CCC(F)(F)CC2)c1` (single isomer, unassigned) [Example 147], with 828 nM.
With `COCC(c1ccnc(NC(=O)C(NC(=O)Cc2cc(C)on2)C2CCC(C)CC2)c1)N1CC(C(F)(F)F)NC1=O` (single isomer, unassigned) [Example 253], the IC50 was found to be 106 nM.
For `COCC(c1ccnc(NC(=O)[C@@H](NC(=O)C(F)(F)c2ccccc2)[C@H]2CC[C@H](C)CC2)c1)N1C[C@@H](C(F)(F)F)NC1=O` (single isomer, unassigned) [Example 150], the IC50 turned out to be 61 nM.
In the case of `CC(C)(C)OC(=O)N[C@H](C(=O)Nc1cc(CN2C[C@@H](C(F)(F)F)NC2=O)ccn1)[C@H]1CC[C@H](C)CC1` [Example 1, Tert-butyl ((S)-1-((1r,4S)-4-methylcyclohexyl)-2-oxo-2-((4-(((S)-2-oxo-4-(trifluoro-methyl)imidazolidin-1-yl)methyl)pyridin-2-yl)amino)ethyl)carbamate], the IC50 came to 148 nM.
Then `CC(C)(OC[C@H](NC(=O)c1nonc1C1CC1)C(=O)Nc1cc(CN2C[C@@H](C(F)(F)F)NC2=O)ccn1)C(F)(F)F` [Example 274, 4-cyclopropyl-N-((S)-1-oxo-1-((4-(((S)-2-oxo-4-(trifluoromethyl)imidazolidin-1-yl)methyl)pyridin-2-yl)amino)-3-((1,1,1-trifluoro-2-methylpropan-2-yl)oxy)propan-2-yl)-1,2,5-oxadiazole-3-carboxamide], with 75 nM; and `COC[C@H](c1ccnc(NC(=O)C(NC(=O)c2nonc2C2CC2)C2CCC(C)(F)CC2)c1)N1C[C@@H](C(F)(F)F)NC1=O` (single isomer, unassigned) [Example 296], with 4490 nM.
Consider `NCC1(c2nocc2C(=O)N[C@H](C(=O)Nc2cc(CN3C[C@@H](C(F)(F)F)NC3=O)ccn2)C2CCC(F)(F)CC2)CC1` [Example 22, 3-(1-(Aminomethyl)cyclopropyl)-N—((S)-1-(4,4-difluorocyclohexyl)-2-oxo-2-((4-(((S)-2-oxo-4-(trifluoromethyl)imidazolidin-1-yl)methyl)pyridin-2-yl)amino)ethyl)isoxazole-4-carboxamide HCl salt], for which the IC50 amounted to 9230 nM.
In turn, `CCc1nocc1C(=O)N[C@H](C(=O)Nc1cc(C(NC(=O)CCC(F)(F)F)C2CC2)ccn1)C(C1CC1)C1CC1` (single isomer, unassigned) [Example 44] gave an IC50 of 151 nM.

Broadly, the IC50 is the midpoint of a concentration-inhibition curve. Lower therefore signals inhibition by little substance.
